According to the PolyMetriX glass transition set:
Structures can show the parent of a compound that is named as a salt. ± gives the standard deviation of the reports.

Row | Structure (SMILES) | glass transition temperature
1 | *CC1CCC(CNC(=O)CCCCCCCCCCC(=O)N*)CC1 (repeat unit) | 85.00 °C
2 | *CC(*)OC=O (repeat unit) [Poly(vinyl formate)] | 32.4 ± 3.6 °C
3 | *CC(*)CCCCC (repeat unit) [Poly(pentylethylene)] | -44.33 ± 1.7 °C
4 | *Cc1cc(C23CC4CC(CC(C4)C2)C3)cc(CN(*)c2ccccc2)c1O (repeat unit) | 109.40 °C
5 | *O[Si](C)(C)O[Si](C)(C)O[Si](C)(C)O[Si](C)(C)c1ccc(Oc2ccc([Si](*)(C)C)cc2)cc1 (repeat unit) | -52.00 °C
6 | *CCC1CC(*)C2C3CC(c4ccc(COC(C)CC)cc4)C(C3)C12 (repeat unit) | 139.00 °C
7 | *Oc1ccc(CC(NC(=O)CCc2ccc(OC(=O)CCCC(*)=O)cc2)C(=O)OCCCCCCCCCCCC)cc1 (repeat unit) | 27.50 °C
8 | *c1cccc(P(=O)(c2ccccc2)c2cccc(-n3c(=O)c4c(-c5ccccc5)c5c(=O)n(*)c(=O)c5c(-c5ccccc5)c4c3=O)c2)c1 (repeat unit) | 342.00 °C
9 | *CCOCCOC(=O)C(=O)O* (repeat unit) | -28.00 °C
10 | *CC(*)(C)C(=O)OCCN(CC)c1ccc([N+](=O)[O-])cc1 (repeat unit) | 98.00 °C
11 | *CC(*)C[Si](C)(C)C (repeat unit) | 114.00 °C

More lines, now with the values ahead:

Row | glass transition temperature | Structure (SMILES)
12 | 331.00 °C | *C(=O)Nc1cccc(C(=O)Nc2cccc(NC(=O)c3ccc4[nH]c(-c5cccc(-c6nc7cc(*)ccc7[nH]6)c5)nc4c3)c2)c1 (repeat unit)
13 | 249.00 °C | *c1cc(C(=O)OCCC)cc(N2C(=O)CC(C3Cc4ccccc4C4C(=O)N(*)C(=O)C43)C2=O)c1 (repeat unit)
14 | 152.00 °C | *CC(*)(C)C(=O)Oc1ccc(C(=O)/C=C/c2ccc(OCc3ccccc3)cc2)cc1 (repeat unit)
15 | 275.00 °C | *Nc1ccc(NC(=O)c2ccc(C(=O)c3ccc(C(*)=O)c(C(=O)OCC)c3)cc2C(=O)OCC)cc1 (repeat unit)
16 | 160.00 °C | *Oc1ccc(NC(=O)CCCCCCCCC(=O)Nc2ccc(*)cc2)cc1 (repeat unit)
17 | 310.00 °C | *Oc1ccc(C(=O)Nc2ccc(S(=O)(=O)c3ccc(NC(=O)c4ccc(Oc5nc(*)nc(Sc6ccccc6)n5)cc4)cc3)cc2)cc1 (repeat unit)
18 | 208.00 °C | *c1ccc(Oc2ccc(C(=O)c3cccc(C(=O)c4ccc(Oc5ccc(N6C(=O)c7ccc([Si](C)(C)c8ccc9c(c8)C(=O)N(*)C9=O)cc7C6=O)cc5)cc4)c3)cc2)cc1 (repeat unit)
19 | 156.00 °C | *O[Si](*)(C)CCc1cc(-c2nnc(-c3ccc(OCCCCCCCCCCCC)cc3)o2)ccc1-c1nnc(-c2ccc(OCCCCCCCCCCCC)cc2)o1 (repeat unit)
20 | 48.00 °C | *O[Si](*)(C)CCCOc1ccc(C(=O)Oc2ccc(-c3ccc(OC(=O)c4cc(OCCCCCCCCCCCC)c(OCCCCCCCCCCCC)c(OCCCCCCCCCCCC)c4)cc3)cc2)cc1 (repeat unit)
21 | 208.00 °C | *Nc1ccc(C(C)(C)c2cccc(C(C)(C)c3ccc(NC(=C(C#N)C#N)c4ccc(C(*)=C(C#N)C#N)cc4)cc3)c2)cc1 (repeat unit)
22 | 171.00 °C | *Oc1ccc(C(C)(C)c2ccc(Oc3ccc(C(=O)c4ccc(C(=O)c5ccc(*)c(C(F)(F)F)c5)cc4)cc3C(F)(F)F)cc2)cc1 (repeat unit)
23 | 85.00 °C | *CCCC1(CCCNC(=O)CCCCCCCCC(=O)N*)c2ccccc2-c2ccccc21 (repeat unit)
24 | 279.00 °C | *c1ccc(OC(=O)c2ccc(C(=O)Oc3ccc(C4(*)OC(=O)c5ccccc54)cc3)cc2)cc1 (repeat unit)
25 | 220.00 °C | */C(=C/c1ccc(/C=C(\c2ccccc2)c2ccc(-c3ccc(*)cc3)cc2)cc1)c1ccccc1 (repeat unit)
